# Data reported in paper PMC10238102, “Anti-SARS-CoV-2 Activity of Adamantanes In Vitro and in Animal Models of Infection” (COVID, 2022).
# Columns and labels:
# [1] = system: SARS-CoV-2 omicron variant B.1.1.529; experiment: microbe, parasite or virus in culture; format: cell-based; details: Severe acute respiratory syndrome coronavirus 2, Vero C1008, 48 h
# [2] = mouse, in vivo
Compound,IC50 [1] [µM],weight loss at 3 DPI compared to water control [2]
NC12CC3CC(CC(C3)C1)C2 [amantadine],106,significant amount of weight loss
CCC(CC)COC(=O)[C@H](C)N[P@](=O)(OC[C@H]1O[C@@](C#N)(c2ccc3c(N)ncnn23)[C@H](O)[C@@H]1O)Oc1ccccc1 [remdesivir],0.89,–
CC(N)C12CC3CC(CC(C3)C1)C2 (stereo not shown) [rimantadine],17.8,–
